Columns and labels:
[1] = system: Cyclin Dependent Kinase 5 (CDK5); experiment: Hippocampal CDK5, p35 and p25 protein levels (western blot) after 10 days of oral drinking; assay type: in vivo, Wistar rats; conditions: oral by drinking 100 mg/Kg for 10 days, hippocampus, FIG. 8A
Description: (§1) Animal experimental procedures were carried out in accordance with the European Communities directive 2010/63/EU and Spanish legislation (Real Decreto 53/2013). The protocol was approved by the Research and approved by Ethics Committee for Animal Experiments of the University of Malaga, Spain. In accordance with the ARRIVE guidelines, all efforts were made to minimize animal suffering and to reduce the number of animals used per experimental group. Chronic drinking experiments on Wistar rats were performed on 20 male rats. All adult rats, ageing 2 months (≈300 g of body weight), were provided by Charles River Laboratories (Barcelona, Spain). The animals were housed individually under a standard 12 h light-dark cycle in a room with temperature and humidity control. Water and rat chow pellets were provided ad libitum throughout the course of the present study.
(§2) Caromax®-D-Pinitol (3-O-methyl-d-chiro-inositol, DPIN, 98% purity) and Caromax®-D-Chiro-inositol (cis-1,2,3-trans-3,5,6-cyclohexanehexol, DCI) were provided by Euronutra SL (Málaga, Spain). They were dissolved in water to orally daily administration by drinking and/or gavage at dose of 100 mg/Kg of body weight (BW) in a 1 ml/kg of BW volume to Zucker and Wistar rats for 4 weeks (28 days) and 10 days, respectively (FIG. 1). During the drinking treatments, the concentration of inositols in the water were updated considering the daily increase of BW of the rats and the possible loss of water by evaporation.
Brain extract. […]
Western Blot Analysis. […] Bands were quantified by densitometric analysis using ImageJ software (Rasband, WS, ImageJ, US National Institutes of Health, Bethesda, Md., USA). […] The results were expressed as the protein/α-Adaptin ratio or phosphorylated/total protein ratio and normalized to the control group (Y axis represents ‘fold mean of the control values’).
All data are expressed as mean±SEM. […]

[2] = system: Ghrelin; experiment: Plasma ghrelin (ELISA) after acute oral gavage in fasted rats; assay type: in vivo; conditions: adult male Wistar rats
Description: The protocol was approved by the Ethics Committee for Animal Experiments of the University of Malaga.
D-Pinitol (3-0-methyl-D-chiro-inositol) was generously provided by EURONUTRA SL (https://www.euronutra.com/, Malaga, Spain), in the form of crystalline fine powder (lot: PPN-M0201). For acute treatments, D-Pinitol was dissolved in water to be administered by gavage (orally) at different concentrations (100 mg/Kg and 500 mg/Kg), drug was administered at a volume of 1 ml/kg.
After 18 hours of fasting, D-Pinitol dissolved in water was administered acutely by gavage (100 mg/kg in a first study, and 500 mg/kg in a subsequent study). After administration, the animals were sacrificed in groups at different times (being time 0 the administration of D-Pinitol). For the first study (100 mg/kg), groups of animals were sacrificed at times: 10, 20, 30, 60, 120, 240 and 360 minutes after administration; for the second study (500 mg/kg), animals were sacrificed at times: 60, 120 and 240 minutes after administration. As a control group, a group was administered only with water (by gavage).
Animals were anesthetized with sodium pentobarbital (50 mg/Kg, i.p.), blood, brain and liver samples were collected. Blood was centrifuged (2100 g for 8 min, 4° C.) and the plasma kept for further analysis. Liver and brain samples were flash-frozen in liquid N2, then stored at −80° C. until further analysis.
The plasma levels of insulin and ghrelin were determined with an enzyme-linked immunosorbent assay (ELISA) method using commercial kits: EMD Millipore Corporation (Billerica, Mass., USA) Cat. #EZRMI-13K and Cat. #EZRGRT-91K, respectively. Glucagon levels in plasma was determined with a Glucagon Enzyme Immunoassay (EIA) Kit: Cat. #RAB0202 Sigma-Aldrich (Saint Louis, Mo., USA). All serum samples were assayed in duplicate within one assay, and results were expressed in terms of the particular standard hormone.

[3] = system: glycogen synthase kinase-3β (GSK-3β); experiment: Hippocampal GSK-3β phosphorylation and total level (western blot) after 10 days of oral administration; assay type: in vivo, Wistar rats; conditions: oral 100 mg/Kg for 10 days, hippocampus
Description: as §1, §2
Brain extract. Frozen brain samples (17 mg per sample) were homogenized in 1 mL of cold RIPA lysis buffer (50 mM Tris-HCl pH 7.4, 150 mM NaCl, 0.5% NaDOC, 1 mM EDTA, 1% Triton, 0.1% SDS, 1 mM Na3VO4, 1 mM NaF) supplemented with a protease cocktail (Hoffmann-Roche). The suspension was incubated for 2 hours at 4° C., followed by centrifugation at 12,000 rpm for 15 minutes at 4° C. The supernatant was transferred to a new clean centrifuge tube, and Bradford colorimetric method was used to determine the concentration of the total protein. The protein extracts were diluted 1:1 in loading buffer (DTT 2X) and heated for 5 minutes at 99° C. before being subjected to electrophoresis.
Western Blot Analysis. The tissue protein (10-15 μg) was subjected to electrophoresis on 4-12% Criterion XT Precast Bis-Tris gels (Bio-Rad, USA) for 30 minutes at 80V and 2 h at 150V. Proteins were transferred onto a 0.2 μm nitrocellulose membrane (Bio-Rad, USA) for 1 h at 80V by wet transfer equipment. The membrane was washed twice for 5 min in TBST (10 mM Tris-HCl, 150 mM NaCl, 0.1% Tween 20, pH 7.6) and blocked with 2% Bovine Serum Albumin-Tris Buffered Saline Tween 20 (BSA-TBST) for one hour at room temperature on a shaker platform. Subsequently, the membrane was incubated with respective primary antibodies overnight at 4° C. diluted in 2% BSA-TBST (Table 2 for additional information). The following day, the membrane was washed three times for 5 min with TBST. An appropriate HRP conjugated rabbit/mouse secondary antibody (Promega) was diluted 1:10000 in 2% BSA-TST and incubated with the membrane for 1 h shaking at room temperature. Finally, the membrane was washed as above and exposed to chemiluminescent reagent (Santa Cruz, Biotechnology Inc.) for 5 min. Stripping/reproving steps were used when necessary. Respective membrane bound protein was then visualized by Chemiluminescence (ChemiDoc Imaging System, Bio-Rad). Bands were quantified by densitometric analysis using ImageJ software (Rasband, WS, ImageJ, US National Institutes of Health, Bethesda, Md., USA). Normalization was performed using a reference protein of the same membrane, the α-Adaptin. The results were expressed as the protein/α-Adaptin ratio or phosphorylated/total protein ratio and normalized to the control group (Y axis represents ‘fold mean of the control values’).
All data are expressed as mean±SEM. Statistical analysis was undertaken for studies where each group size was of, at least, n=5. […]

COC1[C@@H](O)[C@@H](O)C(O)[C@H](O)[C@H]1O (stereo partly drawn) [DPIN, (1S,2S,4S,5R)-6-methoxycyclohexane-1,2,3,4,5-pentol]
amount of p25 [1]: significantly decreased
amount of p35 subunit [1]: significantly decreased
total amount of CDK5 [1]: does not vary
circulating plasma Ghrelin concentration ([2]; oral 100 mg/kg in sterile water, FIG. 2A): increase
circulating plasma Ghrelin concentration ([2]; oral 500 mg/kg, FIG. 3A / FIG. 4): increase
GSK-3β serine-9 phosphorylation ([3]; FIG. 9A.1): no effect
GSK-3β tyrosine-216 phosphorylation ([3]; FIG. 9A.2): no effect
GSK-3β kinase activity (Ser9/Tyr216) ([3]; FIG. 9A.3): neither enhance nor inhibition
